Measurements taken from PMC12631003 (2025).

Experiments:
[1] = tested on: pre-let-7a-1 (RNA, miRNA) UUAGGGUCACACCCACCACUGGGAGAUAA; assay: microscale thermophoresis; settings: Na+ (185 mM NaCl, 8 mM Na2HPO4), no Mg2+; 1 mM EDTA, 0.05% Tween-20; 5 nM RNA
[2] = tested on: miRNA21 (RNA, miRNA) GUUGACUGUUGAAUCUCAUGGCAAC; assay: microscale thermophoresis; settings: Na+ (185 mM NaCl, 8 mM Na2HPO4), no Mg2+; 1 mM EDTA, 0.05% Tween-20; 5 nM RNA; compounds up to 100-300 µM

| K d [1] | binding [2] | SMILES |
| --- | --- | --- |
| 29.4 µM | no | CCc1nc(C(N)=O)c(Nc2ccc(N3CCC(N4CCN(C)CC4)CC3)c(OC)c2)nc1NC1CCOCC1 |
| 5.0 µM | no | CN1CCN(c2ccc(C(=O)Nc3n[nH]c4ccc(Cc5cc(F)cc(F)c5)cc34)c(NC3CCOCC3)c2)CC1 |
| 82.4 µM |  | N#CC[C@H](C1CCCC1)n1cc(-c2ncnc3[nH]ccc23)cn1 |
| 217 µM |  | Cn1cnc2c(F)c(Nc3ccc(Br)cc3Cl)c(C(=O)NOCCO)cc21 |
